Measurements reported in ChEMBL document CHEMBL1151324, “Cytotoxic geranyl stilbenes from Macaranga schweinfurthii” (J Nat Prod, 1998).
In brackets after ≈: the same amount, converted by molar mass.

What was measured:
A549 [1] = experiment: Cytotoxicity against human A549 cells after 1 hr compound washout; type: functional, cell-based; conditions: A549, 1 h
A549 [2] = experiment: Cytotoxicity against human A549 cells after 48 hrs; type: functional, cell-based; conditions: A549, 48 h
SF-295 [3] = experiment: Cytotoxicity against human SF295 cells after 1 hr; type: functional, cell-based; conditions: SF-295, 1 h
SF-295 [4] = experiment: Cytotoxicity against human SF295 cells after 1 hr compound washout; type: functional, cell-based; conditions: SF-295, 1 h
SF-295 [5] = experiment: Cytotoxicity against human SF295 cells after 48 hrs; type: functional, cell-based; conditions: SF-295, 48 h
CCRF-CEM = experiment: Cytotoxicity against human CCRF-CEM cells; type: functional
HL-60 = experiment: Cytotoxicity against human HL60 cells; type: functional
MOLT-4 = experiment: Cytotoxicity against human MOLT4 cells; type: functional
RPMI-8226 = experiment: Cytotoxicity against human RPMI8226 cells; type: functional
SR = experiment: Cytotoxicity against human SR cells; type: functional
A549 [6] = experiment: Cytotoxicity against human A549 cells; type: functional
HOP-62 = experiment: Cytotoxicity against human HOP62 cells; type: functional
NCI-H226 = experiment: Cytotoxicity against human NCI-H226 cells; type: functional
NCI-H23 = experiment: Cytotoxicity against human NCI-H23 cells; type: functional
NCI-H460 = experiment: Cytotoxicity against human NCI-H460 cells; type: functional
HCC 2998 = experiment: Cytotoxicity against human HCC2998 cells; type: functional
HCT-116 = experiment: Cytotoxicity against human HCT116 cells; type: functional
HCT-15 = experiment: Cytotoxicity against human HCT15 cells; type: functional
HT-29 = experiment: Cytotoxicity against human HT-29 cells; type: functional
KM12 = experiment: Cytotoxicity against human KM12 cells; type: functional
SW-620 = experiment: Cytotoxicity against human SW620 cells; type: functional
SF-268 = experiment: Cytotoxicity against human SF268 cells; type: functional
SF-295 [7] = experiment: Cytotoxicity against human SF295 cells; type: functional
SF-539 = experiment: Cytotoxicity against human SF539 cells; type: functional
SNB-19 = experiment: Cytotoxicity against human SNB19 cells; type: functional
SNB-75 = experiment: Cytotoxicity against human SNB75 cells; type: functional
U-251 = experiment: Cytotoxicity against human U251 cells; type: functional
M14 = experiment: Cytotoxicity against human M14 cells; type: functional
SK-MEL-2 = experiment: Cytotoxicity against human SK-MEL-2 cells; type: functional
SK-MEL-28 = experiment: Cytotoxicity against human SK-MEL-28 cells; type: functional
SK-MEL-5 = experiment: Cytotoxicity against human SK-MEL-5 cells; type: functional
UACC-257 = experiment: Cytotoxicity against human UACC257 cells; type: functional
UACC-62 = experiment: Cytotoxicity against human UACC62 cells; type: functional
OVCAR-3 = experiment: Cytotoxicity against human OVCAR-3 cells; type: functional
OVCAR-4 = experiment: Cytotoxicity against human OVCAR4 cells; type: functional
OVCAR-5 = experiment: Cytotoxicity against human OVCAR5 cells; type: functional
OVCAR-8 = experiment: Cytotoxicity against human OVCAR8 cells; type: functional
SK-OV-3 = experiment: Cytotoxicity against human SKOV3 cells; type: functional
[8] = Cytotoxicity against human 786-O cells; type: functional
A498 = experiment: Cytotoxicity against human A498 cells; type: functional
CAKI-1 = experiment: Cytotoxicity against human Caki1 cells; type: functional
RXF 393 = experiment: Cytotoxicity against human RXF393 cells; type: functional
UO-31 = experiment: Cytotoxicity against human UO31 cells; type: functional
MDA-MB-231 = experiment: Cytotoxicity against human MDA-MB-231 cells; type: functional
[9] = Cytotoxicity against human Hs 578T cells; type: functional
MDA-MB-435 = experiment: Cytotoxicity against human MDA-MB-435 cells; type: functional
T47D = experiment: Cytotoxicity against human T47D cells; type: functional
[10] = read-out: pLC50 (the source's name) (converted)

Compound: CC(C)=CCC/C(C)=C/Cc1c(O)cc(/C=C/c2cc(O)c3c(c2)C[C@@H]2C(C)(C)[C@H](O)[C@H](O)C[C@@]2(C)O3)cc1O [SCHWEINFURTHIN A]
- IC50 (A549 [1]): 20 µg/mL (≈ 36.4 µM)
- IC50 (A549 [2]): 3.7 µg/mL (≈ 6.74 µM)
- IC50 (SF-295 [3]): 47 µg/mL (≈ 85.7 µM)
- IC50 (SF-295 [4]): 0.06 µg/mL (≈ 0.109 µM)
- IC50 (SF-295 [5]): < 0.01 ng/mL
- GI50 (CCRF-CEM): 0.01 µM
- LC50 (CCRF-CEM): 74.1 µM
- TGI (CCRF-CEM; read-out: pTGI (converted)): 2.09 µM
- GI50 (HL-60): 0.0158 µM
- LC50 (HL-60): 38.9 µM
- TGI (HL-60; read-out: pTGI (converted)): 0.129 µM
- GI50 (MOLT-4): 0.0151 µM
- LC50 (MOLT-4): 57.5 µM
- TGI (MOLT-4; read-out: pTGI (converted)): 1.29 µM
- GI50 (RPMI-8226): 0.01 µM
- LC50 (RPMI-8226): 75.9 µM
- TGI (RPMI-8226; read-out: pTGI (converted)): 0.0209 µM
- GI50 (SR): 0.0708 µM
- LC50 (SR): 74.1 µM
- TGI (SR; read-out: pTGI (converted)): 18.2 µM
- GI50 (A549 [6]): 0.141 µM
- LC50 (concentration killing 50% of cells) (A549 [6]): 40.7 µM
- TGI (A549 [6]; read-out: pTGI (converted)): 14.1 µM
- GI50 (HOP-62): 0.12 µM
- LC50 (HOP-62): 40.7 µM
- TGI (HOP-62; read-out: pTGI (converted)): 15.1 µM
- GI50 (NCI-H226): 4.47 µM
- LC50 (NCI-H226): 70.8 µM
- TGI (NCI-H226; read-out: pTGI (converted)): 15.8 µM
- GI50 (NCI-H23): 3.24 µM
- LC50 (NCI-H23): 51.3 µM
- TGI (NCI-H23; read-out: pTGI (converted)): 18.2 µM
- GI50 (NCI-H460): 0.0129 µM
- LC50 (NCI-H460): 38.9 µM
- TGI (NCI-H460; read-out: pTGI (converted)): 12 µM
- GI50 (HCC 2998): 0.501 µM
- LC50 (HCC 2998): 33.1 µM
- TGI (HCC 2998; read-out: pTGI (converted)): 9.77 µM
- GI50 (HCT-116): 0.0525 µM
- LC50 (HCT-116): 40.7 µM
- TGI (HCT-116; read-out: pTGI (converted)): 14.1 µM
- GI50 (HCT-15): 1.82 µM
- LC50 (HCT-15): 25.7 µM
- TGI (HCT-15; read-out: pTGI (converted)): 6.03 µM
- GI50 (HT-29): 0.309 µM
- LC50 (HT-29): 5.5 µM
- TGI (HT-29; read-out: pTGI (converted)): 2.4 µM
- GI50 (KM12): 1.51 µM
- LC50 (KM12): 30.2 µM
- TGI (KM12; read-out: pTGI (converted)): 14.1 µM
- GI50 (SW-620): 0.257 µM
- LC50 (SW-620): 44.7 µM
- TGI (SW-620; read-out: pTGI (converted)): 18.2 µM
- GI50 (SF-268): 2.4 µM
- LC50 (SF-268): 74.1 µM
- TGI (SF-268; read-out: pTGI (converted)): 20.9 µM
- LC50 (SF-295 [7]): 17 µM
- GI50 (SF-295 [7]; read-out: GI50): 0.011 µM
- TGI (SF-295 [7]; read-out: TGI): 0.052 µM
- GI50 (SF-295 [7]; read-out: pGI50 (converted)): 0.011 µM
- TGI (SF-295 [7]; read-out: pTGI (converted)): 0.0525 µM
- GI50 (SF-539): 0.01 µM
- LC50 (SF-539): 8.13 µM
- TGI (SF-539; read-out: pTGI (converted)): 1.7 µM
- GI50 (SNB-19): 0.257 µM
- LC50 (SNB-19): 49 µM
- TGI (SNB-19; read-out: pTGI (converted)): 20 µM
- GI50 (SNB-75): 0.0151 µM
- LC50 (SNB-75): 50.1 µM
- TGI (SNB-75; read-out: pTGI (converted)): 0.38 µM
- GI50 (U-251): 0.0251 µM
- LC50 (U-251): 49 µM
- TGI (U-251; read-out: pTGI (converted)): 22.9 µM
- GI50 (M14): 0.0158 µM
- LC50 (M14): 2.69 µM
- TGI (M14; read-out: pTGI (converted)): 0.324 µM
- GI50 (SK-MEL-2): 1.7 µM
- LC50 (SK-MEL-2): 42.7 µM
- TGI (SK-MEL-2; read-out: pTGI (converted)): 12.9 µM
- GI50 (SK-MEL-28): 4.57 µM
- LC50 (SK-MEL-28): 60.3 µM
- TGI (SK-MEL-28; read-out: pTGI (converted)): 24 µM
- GI50 (SK-MEL-5): 0.0912 µM
- LC50 (SK-MEL-5): 12 µM
- TGI (SK-MEL-5; read-out: pTGI (converted)): 2.82 µM
- GI50 (UACC-257): 4.27 µM
- LC50 (UACC-257): 43.7 µM
- TGI (UACC-257; read-out: pTGI (converted)): 18.2 µM
- GI50 (UACC-62): 0.11 µM
- LC50 (UACC-62): 6.31 µM
- TGI (UACC-62; read-out: pTGI (converted)): 1.82 µM
- GI50 (OVCAR-3): 3.09 µM
- LC50 (OVCAR-3): 21.9 µM
- TGI (OVCAR-3; read-out: pTGI (converted)): 7.94 µM
- GI50 (OVCAR-4): 4.27 µM
- LC50 (OVCAR-4): 81.3 µM
- TGI (OVCAR-4; read-out: pTGI (converted)): 24 µM
- GI50 (OVCAR-5): 6.46 µM
- LC50 (concentration killing 50% of cells) (OVCAR-5): 45.7 µM
- TGI (OVCAR-5; read-out: pTGI (converted)): 20 µM
- GI50 (OVCAR-8): 5.13 µM
- LC50 (OVCAR-8): 57.5 µM
- TGI (OVCAR-8; read-out: pTGI (converted)): 20 µM
- GI50 (SK-OV-3): 2.69 µM
- LC50 (SK-OV-3): 39.8 µM
- TGI (SK-OV-3; read-out: pTGI (converted)): 15.8 µM
- GI50 ([8]; 786-0): 0.01 µM
- LC50 ([8]; 786-0): 19.1 µM
- TGI ([8]; 786-0, read-out: pTGI (converted)): 3.02 µM
- GI50 (A498): 4.17 µM
- LC50 (A498): 61.7 µM
- TGI (A498; read-out: pTGI (converted)): 22.9 µM
- GI50 (CAKI-1): 0.129 µM
- LC50 (CAKI-1): 56.2 µM
- TGI (CAKI-1; read-out: pTGI (converted)): 19.1 µM
- GI50 (RXF 393): 0.01 µM
- LC50 (RXF 393): 55 µM
- TGI (RXF 393; read-out: pTGI (converted)): 2.09 µM
- GI50 (UO-31): 0.01 µM
- LC50 (UO-31): 3.63 µM
- TGI (UO-31; read-out: pTGI (converted)): 0.209 µM
- GI50 (MDA-MB-231): 4.17 µM
- CC50 (MDA-MB-231; [10]): 70.8 µM
- TGI (MDA-MB-231; read-out: pTGI (converted)): 25.1 µM
- GI50 [9]: 0.01 µM
- CC50 [9, 10]: 87.1 µM
- TGI ([9]; read-out: pTGI (converted)): 0.759 µM
- GI50 (MDA-MB-435): 3.8 µM
- CC50 (MDA-MB-435; [10]): 74.1 µM
- TGI (MDA-MB-435; read-out: pTGI (converted)): 33.1 µM
- GI50 (T47D): 3.24 µM
- CC50 (T47D; [10]): 97.7 µM
- TGI (T47D; read-out: pTGI (converted)): 21.9 µM
